Test results: patent publication US20240254531A1, “Enhancing Coupled Catalytic Activity of Multi-Enzyme Cascades With Liquid-Liquid Phase Separation Using Peptide-Based Condensates” (The Government of the United States of America, as …, priority 2023, published 2024)

Key:
other enzymes = test: enhancement of activity of other enzymes by peptide; assay type: biochemical; settings: as detailed in the Appendix of Provisional Patent Application No. 63/482,369
[1] = tested on: three enzyme cascade (AspB, LysC, Asd); test: three-enzyme cascade reaction, rate of NADP+ formation with added peptide; assay type: biochemical, Bacillus subtilis (AspB); E. coli (LysC; settings: addition of peptide vs no BP, FIG. 6A
Source text: A three-enzyme cascade was used for these examples. The first enzyme in the cascade is Bacillus subtilis aspartate ammonia lyase (AspB), which catalyzes the conversion of fumaric acid to aspartic acid. The AspB gene utilized here encodes a 54.5 kDa monomer which assembles into a final active tetramer. The second enzyme is E. coli aspartokinase III (LysC) which phosphorylates aspartic acid in the second step using adenosine triphosphate (ATP) as the phosphate donor. The LysC gene encodes a 49.9 kDa monomer, which assembles into an active ˜100 kDa homodimer. The third enzyme in the cascade, E. coli aspartate-ß-semialdehyde dehydrogenase (Asd), catalyzes conversion of aspartyl phosphate to aspartate semialdehyde using nicotinamide adenine dinucleotide phosphate (NADPH) as the reducing co-factor. The Asd gene encodes a 41.4 kDa monomer which assembles into the active homodimer.
FIG. 2 provides data for free enzymes (not bound to QD) in the presence of different blocking peptides described in Table 1. […]
(§1) Also assayed were two peptides comprising primarily histidine, termed His9 and His12, with their sequences provided below in Table 3. […] FIG. 6C is a fluorescence microscopy image of the same subject of FIG. 6B showing that Alexa594 labeled enzymes are colocalized to the coacervate interior.

[2] = brightfield microscopy of peptide coacervate formation; assay type: physicochemical; settings: brightfield microscopy image, FIG. 6B
Source text: FIGS. 6A-6C show data for enhancement with His9 and His12 peptides and fluorescence micrograph images denoting coacervate formation and localization of enzymes within the coacervates. In FIG. 6A one can see the normalized initial rate of NADP+ formation of the three enzyme cascade with no BP or with addition of the His9 and His12 peptides. The flux through the cascade is increased with the addition of the BP. […] FIG. 6C is a fluorescence microscopy image of the same field as FIG. 6B showing that Alexa594 labeled enzymes are colocalized to the coacervate interior. Excitation was with a 562 nm laser and detection at 570-620 nm.
as §1, with “3. FIGS. 6A to 6C show data relating to these peptides. […] The flux through the cascade is increased with the addition of the BP.” for “3.”

| Substance | activity of other enzymes (other enzymes) | flux through the cascade (normalized initial rate of NADP+ formation) [1] | coacervate formation [2] |
| --- | --- | --- | --- |
| [NH2]GSWHHHHHH[Amide] (H-GSWHHHHHH-NH2) [His-amine] | enhance activity |  |  |
| [NH2]WHHHHHHHHHHHH[COOH] (H-WHHHHHHHHHHHH-OH) [His12] |  | increased |  |
| [NH2]WHHHHHHHHH[COOH] (H-WHHHHHHHHH-OH) [His9] |  | increased | form coacervates |
